Test results taken from patent US10189845B2, “4,6-substituted-pyrazolo[1,5-a]pyrazines as janus kinase inhibitors” (ARRAY BIOPHARMA INC., priority 2014, dated 2019).
Counter-ions that a name gives are not always drawn. Like-named read-outs stand apart in the source and are kept apart here.

Assays:
Format in all cases: biochemical
JAK2 = JAK2 (Homo sapiens (Human), UniProt O60674); assay: JAK2 Inhibition Assay (Example C, Omnia kinase fluorescence peptide substrate assay); conditions: JAK2 Enzyme IC50 1 mM ATP, averaged IC50 ranges
In short: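 Kinetic fluorescence read of Omnia Y7 peptide (10 μM) phosphorylation, ex 360/em 485 nm every 50 s over 45 min, by 4 nM JAK2 at 1 mM ATP. Buffer 25 mM HEPES pH 7.4, 10 mM MgCl2, 0.01% Triton X-100, 1 mM DTT; final DMSO 2%. Percent-of-control values fitted by 4-parameter logistic for IC50.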

JAK3 = JAK3 (Homo sapiens (Human), UniProt P52333); assay: JAK3 Inhibition Assay (Example D, Omnia kinase fluorescence peptide substrate assay)
In short: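 Omnia Sox-peptide kinetic read (ex 360 nm, em 485 nm, every 50 s over 45 min) tracked phosphorylation of 10 μM Y7 peptide by 2 nM recombinant JAK3 at 1 mM ATP. Buffer: 25 mM HEPES pH 7.4, 10 mM MgCl2, 0.01% Triton X-100, 1 mM DTT, with 2% DMSO final.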

JAK1 = JAK1 (Homo sapiens (Human), UniProt P23458); assay: JAK1 Inhibition Assay (Example B, Omnia kinase fluorescence peptide substrate assay)
In short: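 Kinetic fluorescence read (360 nm excitation, 485 nm emission, every 50 s over 45 min) of Omnia Y12 peptide (8 μM) phosphorylation by 12.5 nM human JAK1 at 1 mM ATP. Buffer: HEPES pH 7.4, MgCl2, Triton X-100, DTT; 2% DMSO. IC50 = concentration giving 50 POC on logistic curve.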

Human Tyk2 kinase domain = Human Tyk2 kinase domain (Homo sapiens (Human), UniProt P29597); assay: Tyk2 Inhibition Assay (Example A, Omnia kinase fluorescence peptide substrate assay); conditions: TYK2 Enzyme IC50 1 mM ATP, averaged IC50 ranges
In short: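 IC50 values come from a 4-parameter logistic fit of percent-of-control data, with compounds at 2% final DMSO. Reactions held 1 nM His-tag-cleaved Tyk2 (aa 886–1187), 8 μM Omnia Y12 peptide and 1 mM ATP in pH 7.4 HEPES buffer with 10 mM MgCl2, Triton X-100 and DTT. Sox fluorescence (360/485 nm) was monitored kinetically over 45 min.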

[1] = JAK1 Enzyme IC50 1 mM ATP, 1 mM ATP, averaged IC50 ranges

Sequence of JAK3 (P52333 whole entry): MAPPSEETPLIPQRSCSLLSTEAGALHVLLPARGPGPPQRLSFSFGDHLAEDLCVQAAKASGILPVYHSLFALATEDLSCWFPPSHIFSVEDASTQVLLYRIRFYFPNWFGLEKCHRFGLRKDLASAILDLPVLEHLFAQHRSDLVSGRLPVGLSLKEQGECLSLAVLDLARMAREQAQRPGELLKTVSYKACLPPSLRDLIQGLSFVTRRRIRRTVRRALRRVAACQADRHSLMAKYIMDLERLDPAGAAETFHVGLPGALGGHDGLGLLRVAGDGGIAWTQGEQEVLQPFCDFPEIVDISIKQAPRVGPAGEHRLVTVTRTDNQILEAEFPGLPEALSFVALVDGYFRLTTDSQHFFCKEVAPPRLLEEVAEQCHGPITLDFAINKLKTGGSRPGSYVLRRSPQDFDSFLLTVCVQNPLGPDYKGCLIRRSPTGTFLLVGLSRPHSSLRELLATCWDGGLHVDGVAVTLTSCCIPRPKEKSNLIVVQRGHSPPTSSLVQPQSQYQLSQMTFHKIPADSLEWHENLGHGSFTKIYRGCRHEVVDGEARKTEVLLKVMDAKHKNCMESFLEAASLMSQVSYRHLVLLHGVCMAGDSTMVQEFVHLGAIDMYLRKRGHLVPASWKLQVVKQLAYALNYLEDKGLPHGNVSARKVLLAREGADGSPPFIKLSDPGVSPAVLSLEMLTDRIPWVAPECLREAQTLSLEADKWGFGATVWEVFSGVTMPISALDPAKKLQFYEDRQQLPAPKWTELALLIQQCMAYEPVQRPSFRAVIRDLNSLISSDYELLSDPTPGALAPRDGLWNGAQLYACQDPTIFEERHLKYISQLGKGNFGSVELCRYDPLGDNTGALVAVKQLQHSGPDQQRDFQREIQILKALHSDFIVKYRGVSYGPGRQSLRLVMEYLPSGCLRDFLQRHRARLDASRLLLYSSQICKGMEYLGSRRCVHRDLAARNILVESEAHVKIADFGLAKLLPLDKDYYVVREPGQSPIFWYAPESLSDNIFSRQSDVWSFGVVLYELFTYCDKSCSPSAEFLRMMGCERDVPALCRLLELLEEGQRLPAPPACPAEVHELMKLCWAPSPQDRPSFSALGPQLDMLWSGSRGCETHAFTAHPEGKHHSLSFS
Sequence of JAK2 (O60674 whole entry): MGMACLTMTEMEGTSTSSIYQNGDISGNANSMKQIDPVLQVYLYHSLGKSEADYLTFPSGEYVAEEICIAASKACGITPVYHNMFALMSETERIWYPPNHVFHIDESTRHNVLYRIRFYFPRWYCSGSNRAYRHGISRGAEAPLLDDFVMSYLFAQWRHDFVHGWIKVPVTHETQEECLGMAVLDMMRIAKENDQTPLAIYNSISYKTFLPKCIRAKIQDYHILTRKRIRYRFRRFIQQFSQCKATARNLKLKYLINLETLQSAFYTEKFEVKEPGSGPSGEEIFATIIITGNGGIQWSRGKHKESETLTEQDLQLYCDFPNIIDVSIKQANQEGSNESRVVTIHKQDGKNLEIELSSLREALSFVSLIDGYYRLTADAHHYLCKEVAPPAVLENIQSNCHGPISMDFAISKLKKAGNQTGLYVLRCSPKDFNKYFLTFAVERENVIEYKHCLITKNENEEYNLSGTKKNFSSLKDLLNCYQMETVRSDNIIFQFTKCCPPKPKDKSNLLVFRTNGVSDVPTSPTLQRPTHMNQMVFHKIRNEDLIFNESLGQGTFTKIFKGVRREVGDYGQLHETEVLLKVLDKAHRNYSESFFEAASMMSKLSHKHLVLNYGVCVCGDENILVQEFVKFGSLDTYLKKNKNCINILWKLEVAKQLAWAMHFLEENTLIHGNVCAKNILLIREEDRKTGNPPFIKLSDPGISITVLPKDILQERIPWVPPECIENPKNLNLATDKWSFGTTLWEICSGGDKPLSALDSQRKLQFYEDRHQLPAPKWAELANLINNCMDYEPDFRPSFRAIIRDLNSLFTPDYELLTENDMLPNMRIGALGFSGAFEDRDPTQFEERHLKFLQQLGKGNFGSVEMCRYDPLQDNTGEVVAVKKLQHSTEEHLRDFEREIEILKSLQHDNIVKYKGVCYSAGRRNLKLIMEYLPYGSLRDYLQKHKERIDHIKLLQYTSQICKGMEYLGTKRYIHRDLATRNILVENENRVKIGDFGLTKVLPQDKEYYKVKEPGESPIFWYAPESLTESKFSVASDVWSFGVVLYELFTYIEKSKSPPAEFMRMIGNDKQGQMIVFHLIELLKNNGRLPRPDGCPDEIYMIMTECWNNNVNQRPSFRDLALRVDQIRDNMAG
Sequence of JAK1 (P23458 whole entry): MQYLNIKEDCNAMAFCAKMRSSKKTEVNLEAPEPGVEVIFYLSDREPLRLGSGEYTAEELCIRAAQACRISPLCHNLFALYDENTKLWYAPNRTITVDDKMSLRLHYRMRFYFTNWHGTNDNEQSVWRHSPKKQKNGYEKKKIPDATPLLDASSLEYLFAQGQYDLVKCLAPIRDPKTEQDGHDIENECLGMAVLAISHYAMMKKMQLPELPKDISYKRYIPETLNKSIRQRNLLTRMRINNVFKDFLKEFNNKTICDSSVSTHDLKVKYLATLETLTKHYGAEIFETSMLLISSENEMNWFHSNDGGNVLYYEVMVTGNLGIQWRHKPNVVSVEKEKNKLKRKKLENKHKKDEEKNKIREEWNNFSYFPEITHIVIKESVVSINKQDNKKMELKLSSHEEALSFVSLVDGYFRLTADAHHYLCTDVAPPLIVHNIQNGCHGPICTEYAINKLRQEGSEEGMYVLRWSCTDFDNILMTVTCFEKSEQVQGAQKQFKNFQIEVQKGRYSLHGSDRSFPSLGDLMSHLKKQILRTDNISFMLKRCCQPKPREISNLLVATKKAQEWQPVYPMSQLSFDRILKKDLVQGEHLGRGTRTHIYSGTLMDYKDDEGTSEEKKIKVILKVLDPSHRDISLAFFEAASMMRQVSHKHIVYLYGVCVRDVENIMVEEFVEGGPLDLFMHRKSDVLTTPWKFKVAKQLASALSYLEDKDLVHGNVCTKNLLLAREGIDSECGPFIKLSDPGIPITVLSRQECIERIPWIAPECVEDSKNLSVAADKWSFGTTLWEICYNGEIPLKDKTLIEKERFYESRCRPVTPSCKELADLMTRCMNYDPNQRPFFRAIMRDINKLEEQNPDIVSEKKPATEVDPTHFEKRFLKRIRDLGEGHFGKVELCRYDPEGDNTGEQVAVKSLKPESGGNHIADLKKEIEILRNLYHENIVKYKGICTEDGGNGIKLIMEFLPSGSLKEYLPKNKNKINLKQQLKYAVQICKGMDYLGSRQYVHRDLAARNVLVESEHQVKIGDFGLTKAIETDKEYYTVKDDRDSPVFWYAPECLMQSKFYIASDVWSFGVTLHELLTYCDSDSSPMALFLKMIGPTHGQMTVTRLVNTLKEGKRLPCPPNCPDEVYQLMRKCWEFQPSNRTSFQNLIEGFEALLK
Sequence of Human Tyk2 kinase domain (P29597 886-1187): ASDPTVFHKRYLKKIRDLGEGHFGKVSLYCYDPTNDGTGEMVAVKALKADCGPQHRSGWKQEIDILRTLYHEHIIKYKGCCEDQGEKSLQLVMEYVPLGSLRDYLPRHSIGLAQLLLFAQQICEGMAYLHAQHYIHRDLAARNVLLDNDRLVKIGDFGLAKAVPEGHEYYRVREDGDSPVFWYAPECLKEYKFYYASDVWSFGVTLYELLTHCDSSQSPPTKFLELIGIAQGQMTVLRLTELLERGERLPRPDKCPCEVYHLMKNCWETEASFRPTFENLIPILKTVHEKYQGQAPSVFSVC

| SMILES | IC50 (JAK2) | IC50 (JAK3) | IC50 (JAK1) | IC50 (Human Tyk2 kinase domain) | IC50 (JAK1; [1]) |
| --- | --- | --- | --- | --- | --- |
| Cn1cc(-c2cn3nccc3c(-c3cnn(C4CCCC4O)c3)n2)cn1 (centres unmarked) [Example 53, 2-(4-(6-(1-methyl-1H-pyrazol-4-yl)pyrazolo[1,5-a]pyrazin-4-yl)-1H-pyrazol-1-yl)cyclopentanol] | 100 to 1000 nM | 1000 to 10000 nM | 1000 to 10000 nM | 100 to 1000 nM | – |
| CCC(CC)n1cc(-c2nc(-c3cnn(C[C@H](O)CO)c3)cn3nccc23)cn1 [Example 55, (S)-3-(4-(4-(1-(pentan-3-yl)-1H-pyrazol-4-yl)pyrazolor[1,5-a]pyrazin-6-yl)-1H-pyrazol-1-yl)propane-1,2-diol] | 100 to 1000 nM | 1000 to 10000 nM | – | 10 to 100 nM | 100 to 1000 nM |
| CCC(CC)n1cc(-c2nc(-c3cnn(C[C@@H](O)[C@@H](C)O)c3)cn3nccc23)cn1 [Example 59, (2R,3R)-1-(4-(4-(1-(pentan-3-yl)-1H-pyrazol-4-yl)pyrazolo[1,5-a]pyrazin-6-yl)-1H-pyrazol-l-yl)butane-2,3-diol] | 10 to 100 nM | 1000 to 10000 nM | – | 10 to 100 nM | 100 to 1000 nM |
| CCC(CC)n1cc(-c2nc(-c3cnn(CC[C@@H](O)CO)c3)cn3nccc23)cn1 [Example 64, (R)-4-(4-(4-(1-(pentan-3-yl)-1H-pyrazol-4-yl)pyrazolo[1,5-a]pyrazin-6-yl)-1H-pyrazol-1-yl)butane-1,2-diol] | 10 to 100 nM | 1000 to 10000 nM | – | 10 to 100 nM | 100 to 1000 nM |
| CCC(C)n1cc(-c2nc(-c3cnn(C[C@@H](O)CO)c3)cn3nccc23)cn1 (stereo partly drawn) [Example 67, (2R)-3-(4-(4-(1-(sec-butyl)-1H-pyrazol-4-yl)pyrazolo[1,5-a]pyrazin-6-yl)-1H-pyrazol-1-yl)propane-1,2-diol] | 10 to 100 nM | 100 to 1000 nM | – | 100 to 1000 nM | 100 to 1000 nM |
| CC[C@H](C)n1cc(-c2nc(-c3cnn(C[C@@H](O)CO)c3)cn3nccc23)cn1 [Example 68, (R)-3-(4-(4-(1-((S)-sec-butyl)-1H-pyrazol-4-yl)pyrazolo[1,5-a]pyrazin-6-yl)-1H-pyrazol-1-yl)propane-1,2-diol] | 10 to 100 nM | 1000 to 10000 nM | – | 10 to 100 nM | 100 to 1000 nM |
| CC[C@@H](C)n1cc(-c2nc(-c3cnn(C[C@@H](O)CO)c3)cn3nccc23)cn1 [Example 69, (R)-3-(4-(4-(1-((R)-sec-butyl)-1H-pyrazol-4-yl)pyrazolo[1,5-a]pyrazin-6-yl)-1H-pyrazol-1-yl)propane-1,2-diol] | 100 to 1000 nM | 1000 to 10000 nM | – | 100 to 1000 nM | 1000 to 10000 nM |
| CC[C@H](C)n1cc(-c2nc(-c3cnn(C[C@H](O)CO)c3)cn3nccc23)cn1 [Example 70, (S)-3-(4-(4-(1-((S)-sec-butyl)-1H-pyrazol-4-yl)pyrazolo[1,5-a]pyrazin-6-yl)-1H-pyrazol-1-yl)propane-1,2-diol hydrochloride] | 10 to 100 nM | 1000 to 10000 nM | 100 to 1000 nM | 10 to 100 nM | – |
| CC[C@@H](C)n1cc(-c2nc(-c3cnn(C[C@H](O)CO)c3)cn3nccc23)cn1 [Example 71, (S)-3-(4-(4-(1-((R)-sec-butyl)-1H-pyrazol-4-yl)pyrazolo[1,5-a]pyrazin-6-yl)-1H-pyrazol-1-yl)propane-1,2-diol] | 100 to 1000 nM | 1000 to 10000 nM | – | 100 to 1000 nM | 1000 to 10000 nM |

Next, values leading:

| IC50 (JAK2) | IC50 (JAK3) | IC50 (JAK1) | IC50 (Human Tyk2 kinase domain) | IC50 (JAK1; [1]) | SMILES |
| --- | --- | --- | --- | --- | --- |
| 1000 to 10000 nM | 1000 to 10000 nM | 1000 to 10000 nM | 100 to 1000 nM | – | Cn1cc(-c2cn3nccc3c(-c3cnn(C4CCCC4CO)c3)n2)cn1 (centres unmarked) [Example 51, (2-(4-(6-(1-methyl-1H-pyrazol-4-yl)pyrazolo[1,5-a]pyrazin-4-yl)-1H-pyrazol-1-yl)cyclopentyl)methanol] |
| 10 to 100 nM | 1000 to 10000 nM | 100 to 1000 nM | 10 to 100 nM | – | CC1CCCCCC1n1cc(-c2nc(-c3cnn(C)c3)cn3nccc23)cn1 (centres unmarked) [Example 52, 6-(1-methyl-1H-pyrazol-4-yl)-4-(1-(2-methylcycloheptyl)-1H-pyrazol-4-yl)pyrazolo[1,5-a]pyrazine] |
| 10 to 100 nM | 1000 to 10000 nM | – | 10 to 100 nM | 100 to 1000 nM | CCC(CC)n1cc(-c2nc(-c3cnn(C[C@@H](O)CO)c3)cn3nccc23)cn1 [Example 54, (R)-3-(4-(4-(1-(pentan-3-yl)-1H-pyrazol-4-yl)pyrazolo[1,5-a]pyrazin-6-yl)-1H-pyrazol-1-yl)propane-1,2-diol] |
| 10 to 100 nM | 1000 to 10000 nM | 1000 to 10000 nM | 10 to 100 nM | – | CCC(CC)n1cc(-c2nc(-c3cnn(C[C@H](O)C(C)(C)O)c3)cn3nccc23)cn1 [Example 56, (S)-3-methyl-1-(4-(4-(1-(pentan-3-yl)-1H-pyrazol-4-yl)pyrazolo[1,5-a]pyrazin-6-yl)-1H-pyrazol-1-yl)butane-2,3-diol] |
| 10 to 100 nM | 1000 to 10000 nM | 100 to 1000 nM | 10 to 100 nM | – | CCC(CC)n1cc(-c2nc(-c3cnn(C[C@@H](O)C(C)(C)O)c3)cn3nccc23)cn1 [Example 57, (R)-3-methyl-1-(4-(4-(1-(pentan-3-yl)-1H-pyrazol-4-yl)pyrazolo[1,5-a]pyrazin-6-yl)-1H-pyrazol-1-yl)butane-2,3-diol] |
| 10 to 100 nM | 1000 to 10000 nM | – | 10 to 100 nM | 100 to 1000 nM | CCC(CC)n1cc(-c2nc(-c3cnn(CC(O)CO)c3)cn3nccc23)cn1 (centres unmarked) [Example 58, 3-(4-(4-(1-(pentan-3-yl)-1H-pyrazol-4-yl)pyrazolo[1,5-a]pyrazin-6-yl)-1H-pyrazol-1-yl)propane-1,2-diol] |
| 10 to 100 nM | 1000 to 10000 nM | 1000 to 10000 nM | 10 to 100 nM | – | CCC(CC)n1cc(-c2nc(-c3cnn(CC(C)(O)CO)c3)cn3nccc23)cn1 (centres unmarked) [Example 60, 2-methyl-3-(4-(4-(1-(pentan-3-yl)-1H-pyrazol-4-yl)pyrazolo[1,5-a]pyrazin-6-yl)-1H-pyrazol-1-yl)propane-1,2-diol] |
| 10 to 100 nM | 1000 to 10000 nM | – | 10 to 100 nM | 100 to 1000 nM | CCC(CC)n1cc(-c2nc(-c3cnn(CC[C@H](O)CO)c3)cn3nccc23)cn1 [Example 62, (S)-4-(4-(4-(1-(pentan-3-yl)-1H-pyrazol-4-yl)pyrazolo[1,5-a]pyrazin-6-yl)-1H-pyrazol-1-yl)butane-1,2-diol] |
| 10 to 100 nM | 1000 to 10000 nM | 100 to 1000 nM | 10 to 100 nM | – | CCC(CC)n1cc(-c2nc(-c3cnn(CC(O)CCO)c3)cn3nccc23)cn1 (centres unmarked) [Example 63, 4-(4-(4-(1-(pentan-3-yl)-1H-pyrazol-4-yl)pyrazolo[1,5-a]pyrazin-6-yl)-1H-pyrazol-1-yl)butane-1,3-diol] |
| 10 to 100 nM | 1000 to 10000 nM | – | 10 to 100 nM | 100 to 1000 nM | CCC(CC)n1cc(-c2nc(-c3cnn(C[C@H](O)[C@H](C)O)c3)cn3nccc23)cn1 [Example 65, (2S,3S)-1-(4-(4-(1-(pentan-3-yl)-1H-pyrazol-4-yl)pyrazolo[1,5-a]pyrazin-6-yl)-1H-pyrazol-1-yl)butane-2,3-diol] |
| 10 to 100 nM | 100 to 1000 nM | – | 10 to 100 nM | 10 to 100 nM | CCC(c1ccccc1)n1cc(-c2nc(-c3cnn(C[C@@H](O)CO)c3)cn3nccc23)cn1 (stereo partly drawn) [Example 66, (2R)-3-(4-(4-(1-(1-phenylpropyl)-1H-pyrazol-4-yl)pyrazolo[1,5-a]pyrazin-6-yl)-1H-pyrazol-1-yl)propane-1,2-diol] |
